# Experiment: Antimicrobial efficacy testing (AET) of atropine sulfate eye drops (0.01%) with different BAK concentrations
# Experimental: The concentration of benzalkonium chloride (BAK) in atropine sulfate eye drops was verified via antimicrobial efficacy testing (AET). The lyophilized preparation was reconstituted with 8 mL of reconstituted diluent including BAK at concentrations of 100 ppm, 80 ppm, 50 ppm, 25 ppm, or 0 ppm to obtain atropine sulfate eye drops (0.01%) including benzalkonium chloride at different concentrations.
# [1] = BAK 0 ppm in atropine sulfate eye drops (0.01%)
# [2] = BAK 25 ppm in atropine sulfate eye drops (0.01%)
# [3] = BAK 50 ppm in atropine sulfate eye drops (0.01%)
# [4] = BAK 80 ppm in atropine sulfate eye drops (0.01%)
# [5] = BAK 100 ppm in atropine sulfate eye drops (0.01%)
substance,measurement,setting,value
benzalkonium chloride [BAK],"AET, Chinese Pharmacopoeia Method, Criteria A&B",[1],Fail
same,"AET, European Pharmacopoeia Method, Criteria A&B",[1],Fail
same,"AET, United States Pharmacopeia Method",[1],Fail
same,"AET, Chinese Pharmacopoeia Method, Criteria A&B",[2],Pass
same,"AET, European Pharmacopoeia Method, Criteria A&B",[2],Pass
same,"AET, United States Pharmacopeia Method",[2],Pass
same,"AET, Chinese Pharmacopoeia Method, Criteria A&B",[3],Pass
same,"AET, European Pharmacopoeia Method, Criteria A&B",[3],Pass
same,"AET, United States Pharmacopeia Method",[3],Pass
same,"AET, Chinese Pharmacopoeia Method, Criteria A&B",[4],Pass
same,"AET, European Pharmacopoeia Method, Criteria A&B",[4],Pass
same,"AET, United States Pharmacopeia Method",[4],Pass
same,"AET, Chinese Pharmacopoeia Method, Criteria A&B",[5],Pass
same,"AET, European Pharmacopoeia Method, Criteria A&B",[5],Pass
same,"AET, United States Pharmacopeia Method",[5],Pass
same,results of the antibacterial efficacy testing,"all tested BAK concentrations (100, 80, 50, 25 ppm) except 0 ppm",met the criteria
same,"antibacterial efficacy criteria ""A"", Chinese Pharmacopoeia, during long-term storage",benzalkonium chloride concentration greater than 70 ppm,criteria requirements of antibacterial efficacy “A” were met

# Source: patent US20250288575A1, “EYE DROP COMPOSITION FOR PREVENTION OR TREATMENT OF OPHTHALMIC DISEASES AND PREPARATION METHOD THEREFOR” (OCUMENSION THERAPEUTICS (SUZHOU) CO., LTD., priority 2021, published 2025)
